Like-named read-outs stand apart in the source and are kept apart here.

The target of the test is T1, Androgen Receptor (Homo sapiens, UniProt P10275).
T1 construct: endogenous in cells; host or cells: VCaP cells
T1 sequence (P10275 1-920): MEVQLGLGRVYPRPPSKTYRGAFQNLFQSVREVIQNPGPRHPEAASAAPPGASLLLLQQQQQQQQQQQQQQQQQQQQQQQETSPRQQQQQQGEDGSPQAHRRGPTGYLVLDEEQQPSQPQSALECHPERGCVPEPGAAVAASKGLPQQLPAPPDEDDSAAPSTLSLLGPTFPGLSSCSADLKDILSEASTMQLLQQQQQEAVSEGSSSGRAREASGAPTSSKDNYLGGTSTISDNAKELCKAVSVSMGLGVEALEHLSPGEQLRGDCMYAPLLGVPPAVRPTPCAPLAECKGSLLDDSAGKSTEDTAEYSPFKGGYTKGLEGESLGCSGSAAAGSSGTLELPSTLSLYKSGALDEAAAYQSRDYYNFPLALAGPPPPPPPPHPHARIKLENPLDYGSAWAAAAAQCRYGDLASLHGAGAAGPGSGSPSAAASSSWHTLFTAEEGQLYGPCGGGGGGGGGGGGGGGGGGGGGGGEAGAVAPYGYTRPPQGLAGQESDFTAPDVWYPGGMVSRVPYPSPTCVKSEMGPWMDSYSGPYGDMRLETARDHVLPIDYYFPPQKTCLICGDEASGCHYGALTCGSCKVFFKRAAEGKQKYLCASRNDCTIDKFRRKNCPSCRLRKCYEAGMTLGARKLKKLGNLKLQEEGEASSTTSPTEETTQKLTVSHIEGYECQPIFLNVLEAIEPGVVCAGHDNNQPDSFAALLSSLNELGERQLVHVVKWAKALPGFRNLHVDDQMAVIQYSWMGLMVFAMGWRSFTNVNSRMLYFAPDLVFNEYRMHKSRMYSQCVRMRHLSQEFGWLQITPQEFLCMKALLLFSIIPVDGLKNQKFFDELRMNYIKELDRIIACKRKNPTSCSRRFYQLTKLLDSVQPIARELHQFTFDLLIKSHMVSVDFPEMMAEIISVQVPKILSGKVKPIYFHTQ
As to the kind of experiment: Androgen Receptor ELISA assay (PathScan AR ELISA) in VCaP cells: AR degradation, Dmax and DC50. In kind it is cell-based. A digest of the protocol: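 After 24 h exposure of VCaP cells (charcoal-stripped serum, 0.1 nM R1881 agonist, 0.1% DMSO) to seven half-log compound concentrations, residual AR in lysates was measured by PathScan ELISA (TMB absorbance, 450 nm). Cells were plated at 30,000/well and grown at least 3 days beforehand.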
(ELISA stands for enzyme-linked immunosorbent assay.)

The mark [1] stands for this setting: read-out: VCaP DC50; VCaP cells; Table 34.
Setting [2] is: VCaP cells; Table 34; read-out: VCaP DC50.
The mark [3] stands for this setting: VCaP, VCaP cells; Table 34; read-out: VCaP Dmax (%).
The mark [4] stands for this setting: read-out: VCaP DC50; VCaP cells; Table 35.
Where [5] appears, read: VCaP cells; Table 35; read-out: VCaP DC50.
Where [6] appears, read: VCaP, VCaP cells; Table 35; read-out: VCaP Dmax (%).

One may read the Dmax as the largest share of the target that was removed. Broadly, the DC50 is the concentration at which degradation of the target reaches its halfway point. For the molecule `Cc1ncsc1-c1ccc(CNC(=O)[C@@H]2C[C@@H](O)CN2C(=O)[C@@H](NC(=O)COCCCCOc2ccc(-c3ccc(N4C(=S)N(c5ccc(C#N)c(C(F)(F)F)c5)C(=O)C4(C)C)cc3)cc2O)C(C)(C)C)cc1` [Example 408], the Dmax (VCaP, read-out: VCaP Dmax (%)) lay within 51 to 70%. Also, the DC50 under setting [1] is less than 50 nM.

For `Cc1ncsc1-c1ccc(CNC(=O)[C@@H]2C[C@@H](O)CN2C(=O)[C@@H](NC(=O)COCCCNC(=O)c2ccc(C(=O)N[C@H]3C(C)(C)[C@H](Oc4ccc(C#N)c(Cl)c4)C3(C)C)cc2)C(C)(C)C)cc1` [Example 409], the DC50 under setting [2] was less than 50 nM. In addition, the Dmax under setting [3] was in the range of 51 to 70%.

With `Cc1ncsc1-c1ccc(CNC(=O)[C@@H]2C[C@@H](O)CN2C(=O)[C@@H](NC(=O)COCC2CCN(c3ccc(C(=O)N[C@H]4C(C)(C)[C@H](Oc5ccc(C#N)c(Cl)c5)C4(C)C)cc3)CC2)C(C)(C)C)cc1` [Example 410], under setting [2], the DC50 is less than 50 nM. Besides, the Dmax under setting [3] is more than 71%.

`Cc1ncoc1-c1ccc([C@H](C)NC(=O)[C@@H]2C[C@@H](O)CN2C(=O)[C@@H](NC(=O)COCCCCNc2ccc(C(=O)N[C@H]3C(C)(C)[C@H](Oc4ccc(C#N)c(Cl)c4)C3(C)C)cc2)C(C)(C)C)cc1` [Example 411]: the DC50 under setting [2] is less than 50 nM. Besides, under setting [3], the Dmax is more than 71%.

Turning to `CC(C)(C)[C@H](NC(=O)COCCCCNc1ccc(C(=O)N[C@H]2C(C)(C)[C@H](Oc3ccc(C#N)c(Cl)c3)C2(C)C)cc1)C(=O)N1C[C@H](O)C[C@H]1C(=O)NCc1ccc(-c2scnc2C2CC2)cc1` [Example 412], the DC50 under setting [2] was less than 50 nM. Besides, the Dmax under setting [3] was in the range of 51 to 70%.

For the molecule `Cc1ncsc1-c1ccc(CNC(=O)[C@@H]2C[C@@H](O)CN2C(=O)[C@@H](NC(=O)COc2ccc(OCC#Cc3ccc(N4C(=S)N(c5ccc(C#N)c(C(F)(F)F)c5)C(=O)C4(C)C)cc3)cc2)C(C)(C)C)cc1` [Example 413], the Dmax (VCaP, read-out: VCaP Dmax (%)) is 51 to 70%. In addition, the DC50 under setting [1] is less than 50 nM.

Turning to `CCOC(=O)c1ncsc1-c1ccc(CNC(=O)[C@@H]2C[C@@H](O)CN2C(=O)[C@@H](NC(=O)COCCCCOc2ccc(-c3ccc(N4C(=S)N(c5ccc(C#N)c(C(F)(F)F)c5)C(=O)C4(C)C)cc3)cc2)C(C)(C)C)cc1` [Example 414], the Dmax (VCaP, read-out: VCaP Dmax (%)) was less than 25%. Under setting [1], the DC50 was less than 50 nM.

Turning to `CCc1ncsc1-c1ccc(CNC(=O)[C@@H]2C[C@@H](O)CN2C(=O)[C@@H](NC(=O)COCCCCNc2ccc(C(=O)N[C@H]3C(C)(C)[C@H](Oc4ccc(C#N)c(Cl)c4)C3(C)C)cc2)C(C)(C)C)cc1` [Example 415], the DC50 under setting [2] is less than 50 nM. In addition, the Dmax under setting [3] is more than 71%.

Turning to `Cc1ncsc1-c1ccc(CNC(=O)[C@@H]2C[C@@H](O)CN2C(=O)[C@@H](NC(=O)COCCCCNc2ccc(C(=O)N[C@H]3C(C)(C)[C@H](Oc4ccc(C#N)c(Cl)c4)C3(C)C)cn2)C(C)(C)C)cc1` [Example 416], under setting [2], the DC50 was 51 to 500 nM. Besides, the Dmax under setting [3] was 26 to 50%.

Regarding `Cc1ncsc1-c1ccc(CNC(=O)[C@@H]2C[C@@H](O)CN2C(=O)[C@@H](NC(=O)COc2ccccc2CCCOc2ccc(C(=O)N[C@H]3C(C)(C)[C@H](Oc4ccc(C#N)c(Cl)c4)C3(C)C)cc2)C(C)(C)C)cc1` [Example 417], the DC50 under setting [2] is less than 50 nM. In addition, the Dmax under setting [3] was more than 71%.

As to `Cc1ncsc1-c1ccc([C@H](C)NC(=O)[C@@H]2C[C@@H](O)CN2C(=O)[C@@H](C(C)C)n2cc(OCCCOCCC(O)CCOc3ccc(N4C(=S)N(c5ccc(C#N)c(C(F)(F)F)c5)C(=O)C4(C)C)cc3)cn2)cc1` (stereo partly shown) [Example 418], the Dmax (VCaP, read-out: VCaP Dmax (%)) was in the range of 51 to 70%. The DC50 under setting [4] is less than 50 nM.

As for `Cc1ncsc1-c1ccc([C@H](C)NC(=O)[C@@H]2C[C@@H](O)CN2C(=O)[C@H](C(C)C)n2cc(OCCCOCCC(O)CCOc3ccc(N4C(=S)N(c5ccc(C#N)c(C(F)(F)F)c5)C(=O)C4(C)C)cc3)cn2)cc1` (stereo partly shown) [Example 419], under “VCaP, read-out: VCaP Dmax (%)”, the Dmax lay in the range of 26 to 50%. Besides, under setting [4], the half-maximal degradation concentration (DC50) is less than 50 nM.

`Cc1ncsc1-c1ccc(CNC(=O)[C@@H]2C[C@@H](O)CN2C(=O)[C@@H](NC(=O)COCC2CCN(c3ccc(-c4ccc(N5C(=S)N(c6ccc(C#N)c(C(F)(F)F)c6)C(=O)C5(C)C)cc4)cn3)CC2)C(C)(C)C)cc1` [Example 420]: the Dmax (VCaP, read-out: VCaP Dmax (%)) lay in the range of 51 to 70%. Besides, the DC50 under setting [4] is 51 to 500 nM.

As for `Cc1ncsc1-c1ccc([C@H](C)NC(=O)[C@@H]2C[C@@H](O)CN2C(=O)[C@@H](NC(=O)c2cc3ccc(OC4CN(c5ncc(C(=O)N[C@H]6C(C)(C)[C@H](Oc7ccc(C#N)c(Cl)c7)C6(C)C)cn5)C4)cc3o2)C(C)(C)C)cc1` [Example 422], the DC50 under setting [5] is less than 50 nM. Also, under setting [6], the Dmax is more than 71%.

`Cc1ncsc1-c1ccc([C@H](C)NC(=O)[C@@H]2C[C@@H](O)CN2C(=O)[C@@H](C(C)C)n2cc(Oc3cccc(OCCCCCOc4ccc(N5C(=S)N(c6ccc(C#N)c(C(F)(F)F)c6)C(=O)C5(C)C)cc4)c3)cn2)nc1` [Example 424]: under “VCaP, read-out: VCaP Dmax (%)”, the Dmax is less than 25%. Besides, the DC50 under setting [4] is more than 501 nM.

As to `Cc1nccn1-c1ccc([C@H](C)NC(=O)[C@@H]2C[C@@H](O)CN2C(=O)[C@@H](NC(=O)COCCNc2ccc(-c3ccc(C(=O)N[C@H]4C(C)(C)[C@H](Oc5ccc(C#N)c(Cl)c5)C4(C)C)cc3)cn2)C(C)(C)C)cc1` [Example 425], the DC50 under setting [5] is less than 50 nM. In addition, the Dmax under setting [6] is more than 71%.

Regarding `Cc1ncsc1-c1ccc([C@H](C)NC(=O)[C@@H]2C[C@@H](O)CN2C(=O)[C@H](C(C)C)n2cc(Oc3cccc(OCCCCCOc4ccc(N5C(=S)N(c6ccc(C#N)c(C(F)(F)F)c6)C(=O)C5(C)C)cc4)c3)cn2)nc1` [Example 426], the Dmax (VCaP, read-out: VCaP Dmax (%)) was less than 25%. Moreover, the DC50 under setting [4] is more than 501 nM.

Take `Cc1ncsc1-c1ccc([C@H](C)NC(=O)[C@@H]2C[C@@H](O)CN2C(=O)[C@@H](C(C)C)n2cc(OCCCOCCCCCOc3ccc(N4C(=S)N(c5ccc(C#N)c(C(F)(F)F)c5)C(=O)C4(C)C)cc3)cn2)nc1` [Example 427]: the Dmax (VCaP, read-out: VCaP Dmax (%)) was less than 25%. Further, the DC50 under setting [4] was more than 501 nM.

In the case of `Cc1ncsc1-c1ccc([C@H](C)NC(=O)[C@@H]2C[C@@H](O)CN2C(=O)[C@H](C(C)C)n2cc(OCCCOCCCCCOc3ccc(N4C(=S)N(c5ccc(C#N)c(C(F)(F)F)c5)C(=O)C4(C)C)cc3)cn2)nc1` [Example 428], the Dmax (VCaP, read-out: VCaP Dmax (%)) was less than 25%. Also, under setting [4], the DC50 was more than 501 nM.

For `Cc1ncsc1-c1ccc([C@H](C)NC(=O)[C@@H]2C[C@@H](O)CN2C(=O)[C@@H](NC(=O)COc2ccc(OC3CCN(c4ccc(N5C(=S)N(c6ccc(C#N)c(C(F)(F)F)c6)C(=O)C5(C)C)cn4)CC3)nc2)C(C)(C)C)cc1` [Example 429], the Dmax (VCaP, read-out: VCaP Dmax (%)) lay within 26 to 50%. Moreover, under setting [4], the DC50 was more than 501 nM.

For the molecule `Cc1ncsc1-c1ccc([C@H](C)NC(=O)[C@@H]2C[C@@H](O)CN2C(=O)[C@@H](NC(=O)COc2ccc(OC3CCN(c4ccc(N5C(=S)N(c6ccc(C#N)c(C(F)(F)F)c6)C(=O)C5(C)C)cc4)CC3)nc2)C(C)(C)C)cc1` [Example 430], the Dmax (VCaP, read-out: VCaP Dmax (%)) is less than 25%. Further, under setting [4], the DC50 is more than 501 nM.

`Cc1ncsc1-c1ccc([C@H](C)NC(=O)[C@@H]2C[C@@H](O)CN2C(=O)[C@@H](NC(=O)CNC(=O)c2ccc(Oc3ccc(C(=O)N[C@H]4C(C)(C)[C@H](Oc5ccc(C#N)c(Cl)c5)C4(C)C)cn3)cc2)C(C)(C)C)nc1` [Example 432]: the DC50 under setting [5] is more than 501 nM. Besides, the Dmax under setting [6] is less than 25%.

In the case of `Cc1ncsc1-c1ccc([C@H](C)NC(=O)[C@@H]2C[C@@H](O)CN2C(=O)[C@@H](NC(=O)COc2ccc(OC3CCC(Oc4ccc(C(=O)N[C@H]5C(C)(C)[C@H](Oc6ccc(C#N)c(Cl)c6)C5(C)C)cc4)CC3)nc2)C(C)(C)C)cc1` (stereo partly shown) [Example 433], the DC50 under setting [5] was less than 50 nM. In addition, the Dmax under setting [6] fell in the range of 51 to 70%.

The values are drawn from patent US11427548B2 (Arvinas Operations, Inc., priority 2015, dated 2022).
